Data: patent publication US12616201B2, “Herbicidal compositions comprising isoxaflutole” (BASF SE, priority 2024, dated 2026)

How the values were obtained:
Format in all cases: in vivo
Abuthilon theophrasti = experiment: Post-emergence application in field trials, ABUTH; settings: ABUTH growth stage 14-16, 18 g ai/ha
Experimental: (§1) In the examples below, using the method of S. R. Colby (1967) “Calculating synergistic and antagonistic responses of herbicide combinations”, Weeds 15, p. 22ff., the value E, which is expected if the activity of the individual active compounds is only additive, was calculated:
(§2) [formula] • where • X=percent activity using active herbicide A at an application rate a; • Y=percent activity using active herbicide B (i.e. isoxaflutole) at an application rate b; • E=expected activity (in %) by A+B at application rates a+b.
(§3) If the value found experimentally is higher than the value E calculated according to Colby, a synergistic effect is present.
(§4) On field test sites, natural weed infestation or seeded weeds were treated post-emergence of the weeds.
(§5) In the field trials, the weeds were treated as indicated below.
(§6) In the following experiments, the herbicidal activity for the individual herbicidal compositions (solo and mixture applications) was assessed at the indicated days after treatment (DAT). The assessments for the damage on undesired weeds caused by the composition was carried out using a scale from 0 to 100%, compared to the untreated control plants. Here, 0 means no damage and 100 means complete destruction of the plants.
(§7) Herbicide A-1 and isoxaflutole (240 g/l SC, Balance Flexx®) were, together with addition of 0.25 v/v % MSO (methylated sed oil) as adjuvant, formulated in water as distribution medium (water volume 200 l/ha) and sprayed with commercial flat fan nozzles.

Amaranthus hybridus = experiment: Post-emergence application in field trials, AMACH; settings: Table 1.1; AMACH growth stage 35; 21 DAT; 25 g ai/ha
Experimental: as §1, §2, §3, §4, §5
as §6, with “the plants. […]” for “the plants.”

Amaranthus retroflexus = experiment: Post-emergence application in field trials, AMARE; settings: Table 3.4; AMARE growth stage 31-49; 42 DAT; 18 g ai/ha
Experimental: as §1, §2, §3, §4, §5, §6, §7
(§8) Herbicide A-1, isoxaflutole (240 g/l SC), saflufenacil (342 g/l) and pyroxasulfone were, together with addition of 0.25 v/v % MSO (methylated sed oil) as adjuvant, formulated in water as distribution medium (water volume 200 l/ha) and sprayed with commercial flat fan nozzles.

Spermacoce latifolia = experiment: Post-emergence application in field trials, BOILF; settings: Table 1.1, BOILF growth stage 40, 21 DAT
Experimental: as §1, §2, §3, §4, §5, §6
Herbicide A-1 and isoxaflutole (75% WG) were, together with addition of 0.5 v/v % MSO (methylated sed oil) as adjuvant, formulated in water as distribution medium (water volume 200 l/ha) and sprayed with commercial flat fan nozzles.

Datura stramonium = experiment: Post-emergence application in field trials, DATST
Experimental: as §1, §2, §3, §4, §5, §6
(§9) Herbicide A-1 and isoxaflutole (240 g/l SC) were, together with addition of 0.25 v/v % MSO (methylated sed oil) as adjuvant, formulated in water as distribution medium (water volume 200 l/ha) and sprayed with commercial flat fan nozzles.
(§10) Herbicide A-1, isoxaflutole (240 g/l SC) and saflufenacil (342 g/l) were, together with addition of 0.25 v/v % MSO (methylated sed oil) as adjuvant, formulated in water as distribution medium (water volume 200 l/ha) and sprayed with commercial flat fan nozzles.

Echinochloa crus-galli = experiment: Post-emergence application in field trials, ECHCG
Experimental: as §1, §2, §3, §4, §5, §6, §9, §7, §10, §8

Euphorbia heterophylla = experiment: Post-emergence application in field trials, EPHHL; settings: Table 1.1; EPHHL growth stage 35; 21 DAT; 50 g ai/ha
Experimental: as §1, §2, §3, §4, §5
as §6, with “the plants. […]” for “the plants.”

Glycine max = experiment: Post-emergence application in field trials, GLXMA; settings: GLXMA growth stage 13
Experimental: as §1, §2, §3, §4, §5, §6, §9

Hordeum vulgare = experiment: Post-emergence application in field trials, HORVX; settings: HORVX growth stage 23-29
Experimental: as §1, §2, §3, §4, §5, §6, §7

Ipomoea triloba = experiment: Post-emergence application in field trials, IPOTR; settings: Table 1.1; IPOTR growth stage 35; 21 DAT; 25 g ai/ha
Experimental: as §1, §2, §3, §4, §5
as §6, with “the plants. […]” for “the plants.”

Setaria verticillata = experiment: Post-emergence application in field trials, SETVE; settings: SETVE growth stage 21-23, 12.5 g ai/ha
Experimental: as §1, §2, §3, §4, §5, §6, §9, §7

Zea mays = experiment: Post-emergence application in field trials, ZEAMX
Experimental: as §1, §2, §3, §4, §5, §6, §9, §7, §10, §8

CCOC(=O)COc1ccccc1Oc1nc(-n2c(=O)cc(C(F)(F)F)n(C)c2=O)c(F)cc1Cl [A-1, ethyl 2-[2-[[3-chloro-5-fluoro-6-[3-methyl-2,6-dioxo-4-(trifluoromethyl)pyrimidin-1-yl]-2-pyridyl]oxy]phenoxy]acetate]
% herbicidal activity (Abuthilon theophrasti; Table 3.1, 7 DAT): 90%
% herbicidal activity (Abuthilon theophrasti; Table 3.2, 21 DAT): 92%
% herbicidal activity (Abuthilon theophrasti; Table 3.4, 42 DAT): 90%
% herbicidal activity (Amaranthus hybridus): 84%
% herbicidal activity (Amaranthus retroflexus): 70%
% herbicidal activity (Spermacoce latifolia; 25 g ai/ha): 81%
% herbicidal activity (Spermacoce latifolia; 50 g ai/ha): 95%
% herbicidal activity (Datura stramonium; Table 2.1, DATST growth stage 14-16, 7 DAT, 18 g ai/ha): 75%
% herbicidal activity (Datura stramonium; Table 2.3, DATST growth stage 14-16, 21 DAT, 18 g ai/ha): 70%
% herbicidal activity (Datura stramonium; Table 4.2, DATST growth stage 14-16, height 5-10 cm, 42 DAT, 12.5 g ai/ha): 55%
% herbicidal activity (Datura stramonium; Table 4.2, DATST growth stage 14-16, height 5-10 cm, 42 DAT, 18 g ai/ha): 70%
% herbicidal activity (Echinochloa crus-galli; Table 2.1, ECHCG growth stage 23-30, 7 DAT, 12.5 g ai/ha): 30%
% herbicidal activity (Echinochloa crus-galli; Table 2.1, ECHCG growth stage 23-30, 7 DAT, 18 g ai/ha): 30%
% herbicidal activity (Echinochloa crus-galli; Table 3.1, ECHCG growth stage 23-30, 7 DAT, 18 g ai/ha): 30%
% herbicidal activity (Echinochloa crus-galli; Table 3.2, ECHCG growth stage 23-30, 21 DAT, 12.5 g ai/ha): 20%
% herbicidal activity (Echinochloa crus-galli; Table 4.1, ECHCG growth stage 23-30, height 15-20 cm, 7 DAT, 12.5 g ai/ha): 30%
% herbicidal activity (Echinochloa crus-galli; Table 4.1, ECHCG growth stage 23-30, height 15-20 cm, 7 DAT, 18 g ai/ha): 30%
% herbicidal activity (Echinochloa crus-galli; Table 5.11, 7 DAT, height 15-20 cm, A-1 12.5 g ai/ha): 30%
% herbicidal activity (Echinochloa crus-galli; Table 5.11, 7 DAT, height 15-20 cm, A-1 18 g ai/ha): 30%
% herbicidal activity (Euphorbia heterophylla): 86%
% herbicidal activity (Glycine max; Table 2.1, 7 DAT, 18 g ai/ha): 80%
% herbicidal activity (Glycine max; Table 2.2, 21 DAT, 12.5 g ai/ha): 80%
% herbicidal activity (Glycine max; Table 2.2, 21 DAT, 18 g ai/ha): 80%
% herbicidal activity (Glycine max; Table 2.3, 21 DAT, 12.5 g ai/ha): 75%
% herbicidal activity (Hordeum vulgare; Table 3.1, 7 DAT, 12.5 g ai/ha): 70%
% herbicidal activity (Hordeum vulgare; Table 3.1, 7 DAT, 18 g ai/ha): 80%
% herbicidal activity (Hordeum vulgare; Table 3.2, 21 DAT, 12.5 g ai/ha): 90%
% herbicidal activity (Ipomoea triloba): 61%
% herbicidal activity (Setaria verticillata; Table 2.1, 7 DAT): 60%
% herbicidal activity (Setaria verticillata; Table 3.4, 42 DAT): 30%
% herbicidal activity (Zea mays; Table 2.1, ZEAMX growth stage 15-16, 7 DAT, 18 g ai/ha): 85%
% herbicidal activity (Zea mays; Table 3.2, ZEAMX growth stage 15-16, 21 DAT, 18 g ai/ha): 75%
% herbicidal activity (Zea mays; Table 3.3, ZEAMX growth stage 15-16, 28 DAT, 18 g ai/ha): 60%
% herbicidal activity (Zea mays; Table 4.1, ZEAMX growth stage 15-16, height 25-30 cm, 7 DAT, 12.5 g ai/ha): 40%
% herbicidal activity (Zea mays; Table 4.1, ZEAMX growth stage 15-16, height 25-30 cm, 7 DAT, 18 g ai/ha): 50%
% herbicidal activity (Zea mays; Table 5.10, 7 DAT, height 25-30 cm, A-1 12.5 g ai/ha): 85%
% herbicidal activity (Zea mays; Table 5.10, 7 DAT, height 25-30 cm, A-1 18 g ai/ha): 85%
% herbicidal activity (Zea mays; Table 5.11, 7 DAT, height 25-30 cm, A-1 12.5 g ai/ha): 85%
% herbicidal activity (Zea mays; Table 5.11, 7 DAT, height 25-30 cm, A-1 18 g ai/ha): 85%
% herbicidal activity (Zea mays; Table 5.12, 7 DAT, height 25-30 cm, A-1 12.5 g ai/ha): 85%
% herbicidal activity (Zea mays; Table 5.12, 7 DAT, height 25-30 cm, A-1 18 g ai/ha): 85%
